# According to publication PMC12203311, “Design, synthesis, in silico and in vitro evaluation of pyrrole–indole hybrids as dual tubulin and aromatase inhibitors with potent anticancer activities” (RSC Advances, 2025):
# Tests used:
# [1] = system: OVCAR-3; test: NCI60 five-dose screen; assay type: cell-based; conditions: Homo sapiens, OVCAR-3, ovarian cancer; for CC50: read-out: LC50 (the source's name)
# [2] = system: OVCAR-8; test: NCI60 five-dose screen; assay type: cell-based; conditions: Homo sapiens, OVCAR-8, ovarian cancer; for CC50: read-out: LC50 (the source's name)
# [3] = system: HL-60 (TB); test: NCI60 five-dose screen; assay type: cell-based; conditions: Homo sapiens, leukemia; for CC50: read-out: LC50 (the source's name)
# [4] = system: BT-549; test: NCI60 five-dose screen; assay type: cell-based; conditions: Homo sapiens, BT-549, breast cancer; for CC50: read-out: LC50 (the source's name)
# [5] = system: PC-3; test: NCI60 five-dose screen; assay type: cell-based; conditions: Homo sapiens, PC-3, prostate cancer; for CC50: read-out: LC50 (the source's name)
# [6] = system: HCT-15; test: NCI60 five-dose screen; assay type: cell-based; conditions: Homo sapiens, HCT-15, colon cancer; for CC50: read-out: LC50 (the source's name)
# [7] = system: NCI-H226; test: NCI60 five-dose screen; assay type: cell-based; conditions: Homo sapiens, NCI-H226, NSC lung cancer; for CC50: read-out: LC50 (the source's name)
# [8] = system: IGROV1; test: NCI60 five-dose screen; assay type: cell-based; conditions: Homo sapiens, IGROV-1; IGROV1, ovarian cancer
# [9] = system: M14; test: NCI60 five-dose screen; assay type: cell-based; conditions: Homo sapiens, M14, melanoma; for CC50: read-out: LC50 (the source's name)
# [10] = system: MOLT-4; test: NCI60 five-dose screen; assay type: cell-based; conditions: Homo sapiens, MOLT-4, leukemia; for CC50: read-out: LC50 (the source's name)
# [11] = system: DU-145; test: NCI60 five-dose screen; assay type: cell-based; conditions: Homo sapiens, DU-145, prostate cancer; for CC50: read-out: LC50 (the source's name)
# [12] = system: UACC-257; test: NCI60 five-dose screen; assay type: cell-based; conditions: Homo sapiens, UACC-257, melanoma; for CC50: read-out: LC50 (the source's name)
# [13] = system: MDA-MB-435; test: NCI60 five-dose screen; assay type: cell-based, human; conditions: Homo sapiens; for CC50: MDA-MB-435, MDA-MB-435, melanoma, read-out: LC50 (the source's name); for GI50: MDA-MB-435, melanoma
# [14] = system: MDA-MB-468; test: NCI60 five-dose screen; assay type: cell-based; conditions: Homo sapiens, MDA-MB-468, breast cancer; for CC50: read-out: LC50 (the source's name)
# [15] = system: LOX IMVI; test: NCI60 five-dose screen; assay type: cell-based; conditions: Homo sapiens, melanoma; for CC50: read-out: LC50 (the source's name)
# [16] = system: SK-MEL-2; test: NCI60 five-dose screen; assay type: cell-based; conditions: Homo sapiens, SK-MEL-2, melanoma; for CC50: read-out: LC50 (the source's name)
# [17] = system: NCI-H460; test: NCI60 five-dose screen; assay type: cell-based; conditions: Homo sapiens, NCI-H460, NSC lung cancer; for CC50: read-out: LC50 (the source's name)
# [18] = system: HT29; test: NCI60 five-dose screen; assay type: cell-based; conditions: Homo sapiens, HT-29, HT29, colon cancer; for CC50: read-out: LC50 (the source's name)
# [19] = system: RPMI-8226; test: NCI60 five-dose screen; assay type: cell-based; conditions: Homo sapiens, RPMI-8226, leukemia; for CC50: read-out: LC50 (the source's name)
# [20] = system: CAKI-1; test: NCI60 five-dose screen; assay type: cell-based; conditions: Homo sapiens, CAKI-1, renal cancer; for CC50: read-out: LC50 (the source's name)
# [21] = system: HS 578T; test: NCI60 five-dose screen; assay type: cell-based; conditions: Homo sapiens, breast cancer; for CC50: read-out: LC50 (the source's name)
# [22] = system: HCT-116; test: NCI60 five-dose screen; assay type: cell-based; conditions: Homo sapiens, HCT-116, colon cancer; for CC50: read-out: LC50 (the source's name)
# [23] = system: OVCAR-5; test: NCI60 five-dose screen; assay type: cell-based; conditions: Homo sapiens, OVCAR-5, ovarian cancer; for CC50: read-out: LC50 (the source's name)
# [24] = system: HOP-62; test: NCI60 five-dose screen; assay type: cell-based; conditions: Homo sapiens, HOP-62, NSC lung cancer; for CC50: read-out: LC50 (the source's name)
# [25] = system: HOP-92; test: NCI60 five-dose screen; assay type: cell-based; conditions: Homo sapiens, HOP-92, NSC lung cancer; for CC50: read-out: LC50 (the source's name)
# [26] = system: NCI-H23; test: NCI60 five-dose screen; assay type: cell-based; conditions: Homo sapiens, NCI-H23, NSC lung cancer; for CC50: read-out: LC50 (the source's name)
# [27] = system: HCC-2998; test: NCI60 five-dose screen; assay type: cell-based; conditions: Homo sapiens, HCC-2998, colon cancer; for CC50: read-out: LC50 (the source's name)
# [28] = system: MDA-MB-231/ATCC; test: NCI60 five-dose screen; assay type: cell-based; conditions: Homo sapiens, breast cancer; for CC50: read-out: LC50 (the source's name)
# [29] = system: T47D breast cancer cell line; test: Cytotoxicity MTT assay, T47D; assay type: cell-based, human
# Experimental: T47D (ATCC HTB-133) was purchased from Biomedia (Thailand) Co., LTD. L929 (ATCC CCL-1) was received as a gift from Prof. Tanapat Palaga, Department of Microbiology, Faculty of Science, Chulalongkorn University, Bangkok, Thailand. The cells were cultured in Dulbecco's Modified Eagle's Medium (DMEM; Gibco) supplemented with 10% fetal bovine serum (FBS; HyClone), 100 U mL^−1 penicillin and 100 µg mL^−1 streptomycin (Gibco) at 37 °C with 5% CO2.
# The antiproliferative activity was determined by MTT assay. Briefly, the cells were plated into a 96-well microplate at the density of 10 000 cells per well. The cells were allowed to grow overnight before treated with the solutions of compounds in culture medium at the designated concentrations for 48 hours. The medium was then replaced with MTT solution (0.5 mg mL^−1 MTT in culture medium) and incubated for 3 hours. A 100 µL of DMSO was used to dissolve the produced formazan. Absorbance at 570 nm was then measured using a microplate reader (Varioskan™ LUX multimode microplate reader, Thermo Scientific™). Percent viability was calculated relative to the vehicle control (DMSO).
# [30] = system: SF-295; test: NCI60 five-dose screen; assay type: cell-based; conditions: Homo sapiens, SF-295, CNS cancer; for CC50: read-out: LC50 (the source's name)
structure (smiles),measurement,setting,value
"O=C(N/N=C/c1cc([N+](=O)[O-])c[nH]1)c1[nH]c2ccc(Br)cc2c1-c1ccccc1 [Derivative 3q, (E)-5-Bromo-N′-((4-nitro-1H-pyrrol-2-yl)methylene)-3-phenyl-1H-indole-2-carbohydrazide]",GI50,[1],0.397 µM
same,CC50,[1],> 100 µM
same,GI50,[2],10.2 µM
same,CC50,[2],> 100 µM
same,GI50,[3],0.633 µM
same,CC50,[3],> 100 µM
same,GI50,[4],2.47 µM
same,CC50,[4],> 100 µM
same,GI50,[5],0.724 µM
same,CC50,[5],> 100 µM
same,GI50,[6],0.504 µM
same,CC50,[6],> 100 µM
same,GI50,[7],3.39 µM
same,CC50,[7],> 100 µM
same,GI50,[8],2.06 µM
same,GI50,[9],0.574 µM
same,CC50,[9],> 100 µM
same,GI50,[10],0.657 µM
same,CC50,[10],> 100 µM
same,GI50,[11],3.87 µM
same,CC50,[11],> 100 µM
same,GI50,[12],2.58 µM
same,CC50,[12],> 100 µM
same,CC50,[13],8.78 µM
same,GI50,[13],0.226 µM
same,GI50,[14],0.503 µM
same,CC50,[14],> 100 µM
same,GI50,[15],0.647 µM
same,CC50,[15],> 100 µM
same,GI50,[16],1.3 µM
same,CC50,[16],> 100 µM
same,GI50,[17],0.328 µM
same,CC50,[17],> 100 µM
same,GI50,[18],0.469 µM
same,CC50,[18],> 100 µM
same,GI50,[19],3.71 µM
same,CC50,[19],> 100 µM
same,GI50,[20],0.53 µM
same,CC50,[20],> 100 µM
same,GI50,[21],0.486 µM
same,CC50,[21],> 100 µM
same,GI50,[22],0.491 µM
same,CC50,[22],> 100 µM
same,GI50,[23],5.37 µM
same,CC50,[23],> 100 µM
same,GI50,[24],1.26 µM
same,CC50,[24],> 100 µM
same,GI50,[25],11.6 µM
same,CC50,[25],> 100 µM
same,GI50,[26],2.57 µM
same,CC50,[26],> 100 µM
same,GI50,[27],3.66 µM
same,CC50,[27],> 100 µM
same,GI50,[28],17.4 µM
same,CC50,[28],> 100 µM
same,activity against T47D in two-dose screen,[29]; 10 µM and 50 µM,weak activity
same,GI50,[30],0.623 µM
same,CC50,[30],> 100 µM
"Cc1[nH]c(/C=N/NC(=O)c2[nH]c3ccc(Br)cc3c2-c2ccccc2)c(C)c1[N+](=O)[O-] [Derivative 3r, (E)-5-Bromo-N′-((3,5-dimethyl-4-nitro-1H-pyrrol-2-yl)methylene)-3-phenyl-1H-indole-2-carbohydrazide]",GI50,[1],1.77 µM
same,CC50,[1],10.4 µM
same,GI50,[2],3.08 µM
same,CC50,[2],36.5 µM
same,GI50,[3],2.31 µM
same,CC50,[3],> 100 µM
same,GI50,[4],2.74 µM
same,CC50,[4],30.6 µM
same,GI50,[5],2.85 µM
same,CC50,[5],45.5 µM
same,GI50,[6],2.41 µM
same,CC50,[6],26.4 µM
same,GI50,[7],3.78 µM
same,CC50,[7],40.6 µM
same,GI50,[8],3.83 µM
same,GI50,[9],2.54 µM
same,CC50,[9],36.3 µM
same,GI50,[10],2.29 µM
same,CC50,[10],> 100 µM
same,GI50,[11],3.48 µM
same,CC50,[11],34.9 µM
same,GI50,[12],3.13 µM
same,CC50,[12],48.1 µM
same,CC50,[13],17.9 µM
same,GI50,[13],1.77 µM
same,GI50,[14],1.94 µM
same,CC50,[14],26.1 µM
same,GI50,[15],1.63 µM
same,CC50,[15],5.73 µM
same,GI50,[16],2.11 µM
same,CC50,[16],22.6 µM
same,GI50,[17],1.87 µM
same,CC50,[17],8.05 µM
same,GI50,[18],1.84 µM
same,CC50,[18],6.67 µM
same,GI50,[19],2.7 µM
same,CC50,[19],> 100 µM
same,GI50,[20],2.29 µM
same,CC50,[20],33.1 µM
same,GI50,[21],2.43 µM
same,CC50,[21],97.2 µM
same,GI50,[22],1.98 µM
same,CC50,[22],10.4 µM
same,GI50,[23],3.53 µM
same,CC50,[23],41.5 µM
same,GI50,[24],2.09 µM
same,CC50,[24],11.7 µM
same,GI50,[25],2.51 µM
same,CC50,[25],45.8 µM
same,GI50,[26],2.46 µM
same,CC50,[26],26.3 µM
same,GI50,[27],2.41 µM
same,CC50,[27],25.4 µM
same,GI50,[28],3.56 µM
same,CC50,[28],40.5 µM
same,IC50,"[29]; Homo sapiens, T47D, MTT, 48 hours",12.3 ± 0.3 µM
same,GI50,[30],2.32 µM
same,CC50,[30],21.2 µM
